Series [1] can be described thus: Assay for DPPH radical scavenging. The following applies: 500 μM; 30 min in the dark. As to the method: To evaluate the DPPH radical-scavenging efficacy of 1–15, a DPPH methanol solution was mixed with compounds 1–15, and the mixture was left in the dark. After 30 min, the radical-scavenging efficacy of each compound was determined by measuring the optical density at 517 nm. Vitamin C (L-ascorbic acid) was used for comparing radical-scavenging activity, and all test samples were treated at 500 μM.
DPPH was dissolved in methanol to prepare a 0.2 mM solution, and test samples (vitamin C [L-ascorbic acid, LA; positive control] and 1–15) were dissolved in DMSO to prepare a 5 mM solution. The DPPH methanolic solution (180 μL) was added to the test sample DMSO solution (20 μL) in each well of a 96-well microplate and kept in a place without light for 30 min at 22 °C. Using a VersaMax™ ELISA reader, the optical density of each well was recorded at 517 nm to determine DPPH radical-scavenging activity.
(In general: DPPH is a stable violet radical that fades when it is reduced.)

Series [2] is described as follows: Assay for ABTS+ radical scavenging. The following applies: 100 μM. Here is the method: The ABTS^+-scavenging efficacy of compounds 1–15 was determined by oxidizing ABTS with K2S2O8 to prepare ABTS^+. The prepared ABTS^+ solution was mixed with the test samples (1–15 and Trolox, a positive control) and the radical-scavenging efficacy of the test samples was explored by measuring the decrease in optical density at 732 nm. All test samples were tested at 100 μM.
To acquire ABTS^+ radicals, ABTS (14 mM in 20 mL H2O) was mixed with K2S2O8 (4.9 mM in 20 mL H2O), an oxidant agent, and stored at 22 °C in a place without light for 15 h. The absorbance of the prepared ABTS^+ radical solution was adjusted to 0.70 ± 0.01 at 732 nm by adding methanol. Test samples (Trolox [positive control] and 1–15) were dissolved in a co-solvent (DMSO:EtOH = 1:10 [v/v]). The diluted ABTS^+ radical solution (90 μL) was added to the test sample solution (10 μL) in each well of a 96-well plate and held at 22 °C in the dark for 2 min. The optical density of each well was recorded at 732 nm every 1 min for 10 min using an ELISA reader. The final concentration of test samples was 100 μM. %Radical-scavenging activity was determined using the formula 100 × [(Abscon − Abssam)/Abscon], where Abscon and Abssam represent the optical densities of the control and the samples, respectively.

Series [3] deals with B16F10 cells. Description: Cell viability on B16F10 cells (EZ-Cytox). The settings on record: 1, 2, 5, 10 and 20 μM; 72 h. The class given is cell-based. As to the method:
Therefore, we investigated whether these compounds exert tyrosinase inhibitory activity in B16F10 mammalian cells. We examined the effects of these compounds on B16F10 cell viability. Cell viability was assessed for 72 h at five concentrations (1, 2, 5, 10, and 20 μM) of compounds 10 and 15.
The viability of B16F10 cells in the presence of compounds 10 and 15 was assayed. A 96-well microplate containing 1 × 10^3 B16F10 cells per well was incubated at 37 °C in a humid environment containing 5% CO2 for 24 h. Test samples (10 and 15) were added to each well at concentrations of 0, 1, 2, 5, 10, and 20 μM and incubated for 72 h. Each well was exposed to a 10 μL EZ-Cytox solution (EZ-500®, DoGenBio, Seoul, Republic of Korea) and incubated for 2 h. To determine cell viability, well optical density was measured at 450 nm using an ELISA reader.

Series [4] concerns B16F10 cells. Description: Melanin content assay in B16F10 cells. The class given is cell-based. The settings on record: α-MSH + IBMX, 72 h. Here is the method:
After 72 h, the effect of compound 10 on melanin biosynthesis was determined. A 6-well microplate containing 5 × 10^3 B16F10 cells per well was incubated at 37 °C for 24 h. Compound 10 was added to each well at 5, 10, and 20 μM and incubated for 1 h, and then stimulators (1 μM α-MSH and 200 μM IBMX) were added to each well before 72 h incubation. […] For the melanin content quantification, the cells were lysed at 60 °C for 1 h in 100 μL 1N-NaOH solution containing 10% DMSO after washing 2 times with phosphate-buffered saline (PBS). The cell lysates were transferred to a 96-well microplate and the optical density was measured at 405 nm using an ELISA reader to calculate the melanin content in each well.

In series [5] the test system is B16F10 cells. Description: In situ cellular tyrosinase activity assay (L-DOPA staining). The class given is cell-based. The following applies: α-MSH + IBMX, 72 h, then L-DOPA 2 h. Here is the method: The effect of 10 on cellular tyrosinase activity was investigated in situ using L-DOPA and B16F10 cells. This experimental method allows for the direct observation of cellular melanin production. […] After 72 h of incubation, the cells were treated with L-DOPA for 2 h to induce melanin production.
A 24-well plate containing 1 × 10^3 B16F10 cells per well was incubated at 37 °C for 24 h. […] After incubation for 72 h, the cells were fixed for 50 min using paraformaldehyde (4%), rinsed twice with PBS, and permeabilized for 2 min using Triton X-100 (0.1%). The cells were washed with PBS and 500 μL of 2 mM L-DOPA solution was added. After the cells were incubated at 37 °C for 2 h, stained images were obtained using a camera connected to a microscope (Motic, Hong Kong, China).

The next series deals with mushroom tyrosinase (Agaricus bisporus, UniProt C7FF04). Description: Kinetic experiment using mushroom tyrosinase (Lineweaver–Burk and Dixon plots). Type of series: biochemical. Here is the method:
The plots for inhibitors 10 and 15 were obtained by measuring the initial rate of dopachrome production in the presence of various L-DOPA substrate concentrations (Figure 3A,C). For the kinetic experiments, compounds 10 and 15 were used at 0, 1, 2, and 4 μM and at 0, 4, 8, and 16 μM, respectively.
Ki, known as the dissociation constant or inhibition constant, describes the binding affinity between the enzyme and inhibitor. […] Dixon plots were acquired by plotting the inverse of the initial dopachrome formation rate against the inhibitor concentration (Figure 3B,D). Each Dixon plot produces four lines that merge at one point in the second quadrant. The absolute value of the x co-ordinate of the merge point represents the Ki value. […] The lower the Ki value, the stronger the binding affinity. Thus, compound 10 bound more strongly to the tyrosinase active site than compound 15.
The identification of the tyrosinase inhibition mechanism was carried out by kinetic studies using mushroom tyrosinase. Test samples (10 μL; compounds 10 and 15) were mixed with a mushroom tyrosinase aqueous solution (20 μL; 100 units/mL) and a substrate solution (170 μL; substrate [L-DOPA] and 17.2 mM sodium phosphate pH 6.5 buffer) in each well of 96-well microplate. To obtain Lineweaver–Burk plots for kinetic analysis, L-DOPA and test samples were used at various concentrations: 0, 1, 2, and 4 μM for 10; 0, 4, 8, and 16 μM for 15; and 1, 2, 4, 8, and 16 mM for L-DOPA. During a 30 min incubation period, the initial dopachrome formation rate was calculated by measuring the optical density at 475 nm at 5 min intervals using an ELISA reader. Lineweaver–Burk plots were prepared by plotting the inverse of the substrate concentration against the inverse of the initial dopachrome formation rate in the presence of four different concentrations of compounds 10 and 15.

Series [6] relates to B16F10 cellular tyrosinase. Nature of the series: Cellular tyrosinase activity assay in B16F10 cells. The class given is cell-based. The following applies: α-MSH + IBMX, 72 h. As to the method:
We analyzed the effect of 10 on B16F10 cellular tyrosinase activity to determine whether the ability of 10 inhibiting melanogenesis results from its ability to inhibit cellular tyrosinase activity.
A 6-well microplate containing 5 × 10^3 B16F10 cells per well was incubated at 37 °C for 24 h. Compound 10 was added to each well at 5, 10, and 20 μM and incubated for 1 h, and then stimulators (1 μM α-MSH and 200 μM IBMX) were added to each well before 72 h incubation.
To measure the cellular tyrosinase activity, the cells incubated for 72 h were washed 2 times with PBS, exposed to a 100 μL lysis buffer solution containing 5 μL 2 mM phenylmethylsulfonyl fluoride, 5 μL 20% Triton X-100, and 90 μL 50 mM phosphate buffer (pH 6.5), and cultivated for 30 min at −80 °C. After the lysates were centrifuged at 4 °C for 10 min at 10,000× g, an aliquot (80 μL) of the supernatants was added to each well of a 96-well microplate containing 20 μL of 10 mM L-DOPA. Data for the optical density at 475 nm were obtained every 1 min for 10 min at 37 °C using an ELISA reader to determine cellular tyrosinase activity.

mushroom tyrosinase, sequence (C7FF04 1-392): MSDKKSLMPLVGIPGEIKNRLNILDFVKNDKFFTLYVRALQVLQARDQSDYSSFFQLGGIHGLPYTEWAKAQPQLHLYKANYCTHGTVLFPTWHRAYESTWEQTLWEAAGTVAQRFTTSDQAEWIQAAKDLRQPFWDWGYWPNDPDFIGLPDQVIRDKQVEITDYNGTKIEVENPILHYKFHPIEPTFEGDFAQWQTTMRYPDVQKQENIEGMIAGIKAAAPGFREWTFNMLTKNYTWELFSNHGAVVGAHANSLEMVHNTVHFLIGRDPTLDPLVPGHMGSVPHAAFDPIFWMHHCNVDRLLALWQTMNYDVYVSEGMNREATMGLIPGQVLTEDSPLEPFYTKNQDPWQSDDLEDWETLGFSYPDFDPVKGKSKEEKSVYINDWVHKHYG

In series [1], `COc1cc(/C=C2\SC(Nc3cccc4ccccc34)=NC2=O)ccc1O` [Compound 5, (Z)-5-(4-Hydroxy-3-methoxybenzylidene)-2-(naphthalen-1-ylamino)thiazol-4(5H)-one] returned a DPPH radical scavenging of 62%.

In the case of `COc1ccc(/C=C2\SC(Nc3cccc4ccccc34)=NC2=O)cc1O` [Compound 6, (Z)-5-(3-Hydroxy-4-methoxybenzylidene)-2-(naphthalen-1-ylamino)thiazol-4(5H)-one], the DPPH radical scavenging in series [1] is 21%.

Turning to `CCOc1cc(/C=C2\SC(Nc3cccc4ccccc34)=NC2=O)ccc1O` [Compound 7, (Z)-5-(3-Ethoxy-4-hydroxybenzylidene)-2-(naphthalen-1-ylamino)thiazol-4(5H)-one], the DPPH radical scavenging in series [1] came to 61%.

`O=C1N=C(Nc2cccc3ccccc23)S/C1=C\c1ccc(O)cc1O` [Compound 10, (Z)-5-(2,4-Dihydroxybenzylidene)-2-(naphthalen-1-ylamino)thiazol-4(5H)-one]: the “ABTS+ scavenging” value in series [2] was 97%. Further, the B16F10 cell viability result in the series on B16F10 cells [3] is reported as “no perceptible effect on B16F10 cell viability”. In addition, the stimulator-induced melanin content entry in the series with B16F10 cells [4] (5 μM, kojic acid at 20 μM) was “reduced the stimulator-induced melanin content levels similarly to kojic acid”; in the series with B16F10 cells [4] (5, 10 and 20 μM), “strongly reduced stimulator-induced melanin content dose-dependently”. Further, in the series on B16F10 cells [4] (20 μM, controls 100%), the melanin content level was found to be 86%. The “in situ melanin formation (L-DOPA staining)” value is listed as “reduced melanin formation to the level of the untreated control” in the series on B16F10 cells [5] (20 μM); “dose-dependently decreased melanin formation” in the series with B16F10 cells [5] (5, 10 and 20 μM). Also, the affinity at mushroom tyrosinase (Dixon plots, substrate L-DOPA) corresponds to a Ki of 2040 nM. In addition, the inhibition mechanism entry on mushroom tyrosinase (Lineweaver–Burk plots, L-DOPA 1–16 mM) is on record as “compete with the substrates for binding to the active site of tyrosinase”. For the same molecule, the cellular tyrosinase activity entry in series [6] (10 μM) is on record as “slightly more potent tyrosinase inhibitory potency than kojic acid at 20 μM”; in series [6] (20 μM) it was “reduced cellular tyrosinase activity to almost the level of cellular tyrosinase activity in the untreated control”; in series [6] (5, 10 and 20 μM), “dose-dependent decrease in cellular tyrosinase activity”. Moreover, the DPPH radical scavenging in series [1] is on record as 51%.

Take `COc1cc(/C=C2\SC(Nc3cccc4ccccc34)=NC2=O)cc(OC)c1O` [Compound 13, (Z)-5-(4-Hydroxy-3,5-dimethoxybenzylidene)-2-(naphthalen-1-ylamino)thiazol-4(5H)-one]: the “ABTS+ scavenging” value in series [2] stood at 97%. The DPPH radical scavenging in series [1] came to 51%.

Take `CC(C)(C)c1cc(/C=C2\SC(Nc3cccc4ccccc34)=NC2=O)cc(C(C)(C)C)c1O` [Compound 14, (Z)-5-(3,5-Di-tert-butyl-4-hydroxybenzylidene)-2-(naphthalen-1-ylamino)thiazol-4(5H)-one]: in series [2], the “ABTS+ scavenging” value was 95%. For the same molecule, the DPPH radical scavenging in series [1] came out at 68%.

The molecule `O=C1O[C@H]([C@@H](O)CO)C(O)=C1O` [Vitamin C, L-ascorbic acid, reference compound] gave a DPPH radical scavenging in series [1] of 90%.
